Source: patent US6573218B1, “Fused-benzene derivatives useful as herbicides” (Ishihara Sangyo Kaisha, Ltd., priority 1998, dated 2003)

How the values were obtained:
Format in all cases: in vivo
[1] = system: barnyardgrass (Echinochloa crus-galli, ECHCG); assay: Pre-emerge greenhouse herbicide test; conditions: 14 days after application, scale 0-100 (0 no damage, 100 complete death)
Description: (§1) A standard greenhouse herbicide activity screening system was used to evaluate the herbicidal efficacy and crop safety of these test compounds. Seven broadleaf weed species including redroot pigweed (Amaranthus retroflexus, AMARE), velvetleaf (Abutilon theophrasti, ABUTH), sicklepod (Cassia obtusifolia, CASOB), ivyleaf morningglory (Ipomoea hederacea, IPOHE), lambsquarters (Chenopodium album, CHEAL), common ragweed (Ambrosia artemisiifolia L., AMBEL), and cocklebur (Xanthium strumarium, XANST) were used as test species. Four grass weed species including green foxtail (Setaria viridis, SETVI), barnyardgrass (Echinochloa crus-galli, ECHCG), johnsongrass (Sorghum halepense, SORHA), and large crabgrass (Digitaria sanguinalis, DIGSA) were also used. In addition, three crop species, field corn (Zea mays L., var. Dekalb 527, CORN), soybean (Glycine max L., var. Pella 86, SOY), and upland rice (Ory0a sp., var.Tebonnet, RICE) were included.
(§2) All plants were grown in 10 cm square plastic pots which were filled with a sandy loam soil mix. For pre-emerge tests, seeds were planted one day prior to application of the test compounds. For post-emerge tests, seeds were planted 8-21 days prior to the test to allow emergence and good foliage development prior to application of the test substances. At the time of the post-emerge application, plants of all species were usually at the 2-3 leaf stage of development.
(§3) All test compounds were dissolved in acetone and applied to the test units in a volume of 187 l/ha. Test materials were applied at rates ranging from 15 g ai/ha to 1000 g ai/ha using a track sprayer equipped with a TJ8001E even flow flat fan spray nozzle. Plants were arranged on a shelf so that the top of the canopy (post-emerge) or top of the soil surface (pre-emerge) was 40-45 cm below the nozzle. Pressurized air was used to force the test solution through the nozzle as it was mechanically advanced over the top of all test plants/pots. This application simulates a typical commercial field herbicide application.
(§4) In the post-emerge test, a commercial non-ionic surfactant was also included (0.25% v/v) to enhance wetting of the leaf surfaces of target plants. Immediately after application, test units of the pre-emerge applications were watered at the soil surface to incorporate the test materials.
(§5) At 14 days after application of the test materials, phytotoxicity ratings were recorded. A rating scale of 0-100 was used as previously described in Research Methods in Weed Science, 2nd edition, B. Truelove, Ed., Southern Weed Science Society, Auburn University, Auburn, Ala., 1977. Briefly, “0” corresponds to no damage and “100” corresponds to complete death of all plants in the test unit. This scale was used both to determine efficacy against weed species and damage to crop species. Herbicide activity data for various compounds of this invention, which are shown by compound No. in Tables 1-14, are shown in Tables 16 and 17.

[2] = system: lambsquarters (Chenopodium album, CHEAL); assay: Pre-emerge greenhouse herbicide test; conditions: 14 days after application, scale 0-100 (0 no damage, 100 complete death)
Description: as §1, §2, §3, §4, §5

[3] = system: johnsongrass (Sorghum halepense, SORHA); assay: Pre-emerge greenhouse herbicide test; conditions: 14 days after application, scale 0-100 (0 no damage, 100 complete death)
Description: as §1, §2, §3, §4, §5

[4] = system: large crabgrass (Digitaria sanguinalis, DIGSA); assay: Pre-emerge greenhouse herbicide test; conditions: 14 days after application, scale 0-100 (0 no damage, 100 complete death)
Description: as §1, §2, §3, §4, §5

[5] = system: ivyleaf morningglory (Ipomoea hederacea, IPOHE); assay: Pre-emerge greenhouse herbicide test; conditions: 14 days after application, scale 0-100 (0 no damage, 100 complete death)
Description: as §1, §2, §3, §4, §5

[6] = system: redroot pigweed (Amaranthus retroflexus, AMARE); assay: Pre-emerge greenhouse herbicide test; conditions: 14 days after application, scale 0-100 (0 no damage, 100 complete death)
Description: as §1, §2, §3, §4, §5

[7] = system: sicklepod (Cassia obtusifolia, CASOB); assay: Pre-emerge greenhouse herbicide test; conditions: 14 days after application, scale 0-100 (0 no damage, 100 complete death)
Description: as §1, §2, §3, §4, §5

[8] = system: velvetleaf (Abutilon theophrasti, ABUTH); assay: Pre-emerge greenhouse herbicide test; conditions: 14 days after application, scale 0-100 (0 no damage, 100 complete death)
Description: as §1, §2, §3, §4, §5

[9] = system: green foxtail (Setaria viridis, SETVI); assay: Pre-emerge greenhouse herbicide test; conditions: 14 days after application, scale 0-100 (0 no damage, 100 complete death)
Description: as §1, §2, §3, §4, §5

[10] = system: barnyardgrass (Echinochloa crus-galli, ECHCG); assay: Post-emerge greenhouse herbicide test; conditions: 14 days after application
Description: as §1, §2, §3, §4, §5

[11] = system: lambsquarters (Chenopodium album, CHEAL); assay: Post-emerge greenhouse herbicide test; conditions: 14 days after application
Description: as §1, §2, §3, §4, §5

[12] = system: johnsongrass (Sorghum halepense, SORHA); assay: Post-emerge greenhouse herbicide test; conditions: 14 days after application
Description: as §1, §2, §3, §4, §5

[13] = system: large crabgrass (Digitaria sanguinalis, DIGSA); assay: Post-emerge greenhouse herbicide test; conditions: 14 days after application
Description: as §1, §2, §3, §4, §5

[14] = system: ivyleaf morningglory (Ipomoea hederacea, IPOHE); assay: Post-emerge greenhouse herbicide test; conditions: 14 days after application
Description: as §1, §2, §3, §4, §5

[15] = system: redroot pigweed (Amaranthus retroflexus, AMARE); assay: Post-emerge greenhouse herbicide test; conditions: 14 days after application
Description: as §1, §2, §3, §4, §5

[16] = system: sicklepod (Cassia obtusifolia, CASOB); assay: Post-emerge greenhouse herbicide test; conditions: 14 days after application
Description: as §1, §2, §3, §4, §5

[17] = system: velvetleaf (Abutilon theophrasti, ABUTH); assay: Post-emerge greenhouse herbicide test; conditions: 14 days after application
Description: as §1, §2, §3, §4, §5

[18] = system: green foxtail (Setaria viridis, SETVI); assay: Post-emerge greenhouse herbicide test; conditions: 14 days after application
Description: as §1, §2, §3, §4, §5

[19] = system: field corn (Zea mays L., var. Dekalb 527, CORN); assay: Post-emerge greenhouse crop damage test; conditions: var. Dekalb 527, field corn (Zea mays L.), in vivo, 14 days
Description: as §1, §2, §3, §4, §5

[20] = system: upland rice (Ory0a sp., var.Tebonnet, RICE); assay: Post-emerge greenhouse crop damage test; conditions: var. Tebonnet, upland rice (Ory0a sp.), in vivo, 14 days
Description: as §1, §2, §3, §4, §5

[21] = system: soybean (Glycine max L., var. Pella 86, SOY); assay: Post-emerge greenhouse crop damage test; conditions: var. Pella 86, soybean (Glycine max L.), in vivo, 14 days
Description: as §1, §2, §3, §4, §5

[22] = system: field corn (Zea mays L., var. Dekalb 527, CORN); assay: Pre-emerge greenhouse crop damage test; conditions: var. Dekalb 527, field corn (Zea mays L.), in vivo, 14 days
Description: as §1, §2, §3, §4, §5

[23] = system: upland rice (Ory0a sp., var.Tebonnet, RICE); assay: Pre-emerge greenhouse crop damage test; conditions: var. Tebonnet, upland rice (Ory0a sp.), in vivo, 14 days
Description: as §1, §2, §3, §4, §5

[24] = system: soybean (Glycine max L., var. Pella 86, SOY); assay: Pre-emerge greenhouse crop damage test; conditions: var. Pella 86, soybean (Glycine max L.), in vivo, 14 days
Description: as §1, §2, §3, §4, §5

Cn1c(C(F)(F)F)cc(=O)n(-c2c(F)cc(Cl)c3c2NCCO3)c1=O [Compound 2-1, 3-(8-Chloro-6-fluoro-3,4-dihydro-2H-1,4-benzoxazin-5-yl)-1-methyl-6-trifluoromethyl-2,4(1H,3H)-pyrimidindione]
Pre-emerge Herbicidal Activity ECHCG (phytotoxicity rating) ([1]; 125 g ai/ha): 50 | Pre-emerge Herbicidal Activity CHEAL (phytotoxicity rating) ([2]; 125 g ai/ha): 100 | Pre-emerge Herbicidal Activity SORHA (phytotoxicity rating) ([3]; 125 g ai/ha): 95 | Pre-emerge Herbicidal Activity DIGSA (phytotoxicity rating) ([4]; 125 g ai/ha): 100 | Pre-emerge Herbicidal Activity IPOHE (phytotoxicity rating) ([5]; 125 g ai/ha): 50 | Pre-emerge Herbicidal Activity AMARE (phytotoxicity rating) ([6]; 125 g ai/ha): 100 | Pre-emerge Herbicidal Activity CASOB (phytotoxicity rating) ([7]; 125 g ai/ha): 40 | Pre-emerge Herbicidal Activity ABUTH (phytotoxicity rating) ([8]; 125 g ai/ha): 100 | Pre-emerge Herbicidal Activity SETVI (phytotoxicity rating) ([9]; 125 g ai/ha): 100 | Post-emerge Herbicidal Activity ECHCG (phytotoxicity rating 0-100) ([10]; 125 g ai/ha): 10 | Post-emerge Herbicidal Activity CHEAL (phytotoxicity rating 0-100) ([11]; 125 g ai/ha): 100 | Post-emerge Herbicidal Activity SORHA (phytotoxicity rating 0-100) ([12]; 125 g ai/ha): 0 | Post-emerge Herbicidal Activity DIGSA (phytotoxicity rating 0-100) ([13]; 125 g ai/ha): 0 | Post-emerge Herbicidal Activity IPOHE (phytotoxicity rating 0-100) ([14]; 125 g ai/ha): 100 | Post-emerge Herbicidal Activity AMARE (phytotoxicity rating 0-100) ([15]; 125 g ai/ha): 90 | Post-emerge Herbicidal Activity CASOB (phytotoxicity rating 0-100) ([16]; 125 g ai/ha): 80 | Post-emerge Herbicidal Activity ABUTH (phytotoxicity rating 0-100) ([17]; 125 g ai/ha): 100 | Post-emerge Herbicidal Activity SETVI (phytotoxicity rating 0-100) ([18]; 125 g ai/ha): 50 | Post-emerge crop damage CORN (phytotoxicity rating 0-100) [19]: 20 | Post-emerge crop damage RICE (phytotoxicity rating 0-100) [20]: 40 | Post-emerge crop damage SOY (phytotoxicity rating 0-100) [21]: 90 | Pre-emerge Herbicidal Activity CORN (crop damage rating) [22]: 20 | Pre-emerge Herbicidal Activity RICE (crop damage rating) [23]: 70 | Pre-emerge Herbicidal Activity SOY (crop damage rating) [24]: 50

CCc1nc2c(-n3c(=O)n4n(c3=S)CCC=C4)c(F)cc(Cl)c2o1 [Compound 8-1, 8-(7-Chloro-2-ethyl-5-fluorobenzoxazol-4-yl)-1,6,8-triazabicyclo[4,3,0]2-nonene-9-one-7-thione]
Pre-emerge Herbicidal Activity ECHCG (phytotoxicity rating) ([1]; 250 g ai/ha): 90 | Pre-emerge Herbicidal Activity CHEAL (phytotoxicity rating) ([2]; 250 g ai/ha): 100 | Pre-emerge Herbicidal Activity SORHA (phytotoxicity rating) ([3]; 250 g ai/ha): 100 | Pre-emerge Herbicidal Activity DIGSA (phytotoxicity rating) ([4]; 250 g ai/ha): 100 | Pre-emerge Herbicidal Activity IPOHE (phytotoxicity rating) ([5]; 250 g ai/ha): 60 | Pre-emerge Herbicidal Activity AMARE (phytotoxicity rating) ([6]; 250 g ai/ha): 100 | Pre-emerge Herbicidal Activity CASOB (phytotoxicity rating) ([7]; 250 g ai/ha): 90 | Pre-emerge Herbicidal Activity ABUTH (phytotoxicity rating) ([8]; 250 g ai/ha): 100 | Pre-emerge Herbicidal Activity SETVI (phytotoxicity rating) ([9]; 250 g ai/ha): 100 | Post-emerge Herbicidal Activity ECHCG (phytotoxicity rating 0-100) ([10]; 250 g ai/ha): 90 | Post-emerge Herbicidal Activity CHEAL (phytotoxicity rating 0-100) ([11]; 250 g ai/ha): 99 | Post-emerge Herbicidal Activity SORHA (phytotoxicity rating 0-100) ([12]; 250 g ai/ha): 99 | Post-emerge Herbicidal Activity DIGSA (phytotoxicity rating 0-100) ([13]; 250 g ai/ha): 70 | Post-emerge Herbicidal Activity IPOHE (phytotoxicity rating 0-100) ([14]; 250 g ai/ha): 100 | Post-emerge Herbicidal Activity AMARE (phytotoxicity rating 0-100) ([15]; 250 g ai/ha): 100 | Post-emerge Herbicidal Activity CASOB (phytotoxicity rating 0-100) ([16]; 250 g ai/ha): 100 | Post-emerge Herbicidal Activity ABUTH (phytotoxicity rating 0-100) ([17]; 250 g ai/ha): 100 | Post-emerge Herbicidal Activity SETVI (phytotoxicity rating 0-100) ([18]; 250 g ai/ha): 100 | Post-emerge crop damage CORN (phytotoxicity rating 0-100) [19]: 80 | Post-emerge crop damage RICE (phytotoxicity rating 0-100) [20]: 80 | Post-emerge crop damage SOY (phytotoxicity rating 0-100) [21]: 100 | Pre-emerge Herbicidal Activity CORN (crop damage rating) [22]: 50 | Pre-emerge Herbicidal Activity RICE (crop damage rating) [23]: 20 | Pre-emerge Herbicidal Activity SOY (crop damage rating) [24]: 60
